The results in this text go back to patent publication US10287255B2, “Compounds as histone deacetylase 6 inhibitors and pharmaceutical compositions comprising the same” (CHONG KUN DANG PHARMACEUTICAL CORP., priority 2014, dated 2019).

Assay [1] concerns the target T1, human recombinant HDAC1 (Homo sapiens, UniProt Q13547).
T1 construct: purchased Enzo Life Science BML-SE456
Briefly: HDAC1 enzyme activity inhibition assay (in vitro, fluorimetric). The class given is biochemical. As to conditions: human recombinant HDAC1, fluorimetric kit, 30° C. 60 minutes. Put shortly: (§1)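 Human recombinant enzyme (0.3 μg for HDAC1) reacted with 10 μM Fluor de Lys-SIRT1 substrate and 5-fold compound dilutions at 30 °C for 60 min, then developer for 30 min. Fluorescence read at Ex 360/Em 460; IC50 calculated. HDAC6 run by the same protocol.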

Assay [2] deals with T2, human recombinant HDAC6 (Homo sapiens, UniProt Q9UBN7).
T2 construct: purchased Calbiochem 382180
T2 sequence (Q9UBN7 1-1215): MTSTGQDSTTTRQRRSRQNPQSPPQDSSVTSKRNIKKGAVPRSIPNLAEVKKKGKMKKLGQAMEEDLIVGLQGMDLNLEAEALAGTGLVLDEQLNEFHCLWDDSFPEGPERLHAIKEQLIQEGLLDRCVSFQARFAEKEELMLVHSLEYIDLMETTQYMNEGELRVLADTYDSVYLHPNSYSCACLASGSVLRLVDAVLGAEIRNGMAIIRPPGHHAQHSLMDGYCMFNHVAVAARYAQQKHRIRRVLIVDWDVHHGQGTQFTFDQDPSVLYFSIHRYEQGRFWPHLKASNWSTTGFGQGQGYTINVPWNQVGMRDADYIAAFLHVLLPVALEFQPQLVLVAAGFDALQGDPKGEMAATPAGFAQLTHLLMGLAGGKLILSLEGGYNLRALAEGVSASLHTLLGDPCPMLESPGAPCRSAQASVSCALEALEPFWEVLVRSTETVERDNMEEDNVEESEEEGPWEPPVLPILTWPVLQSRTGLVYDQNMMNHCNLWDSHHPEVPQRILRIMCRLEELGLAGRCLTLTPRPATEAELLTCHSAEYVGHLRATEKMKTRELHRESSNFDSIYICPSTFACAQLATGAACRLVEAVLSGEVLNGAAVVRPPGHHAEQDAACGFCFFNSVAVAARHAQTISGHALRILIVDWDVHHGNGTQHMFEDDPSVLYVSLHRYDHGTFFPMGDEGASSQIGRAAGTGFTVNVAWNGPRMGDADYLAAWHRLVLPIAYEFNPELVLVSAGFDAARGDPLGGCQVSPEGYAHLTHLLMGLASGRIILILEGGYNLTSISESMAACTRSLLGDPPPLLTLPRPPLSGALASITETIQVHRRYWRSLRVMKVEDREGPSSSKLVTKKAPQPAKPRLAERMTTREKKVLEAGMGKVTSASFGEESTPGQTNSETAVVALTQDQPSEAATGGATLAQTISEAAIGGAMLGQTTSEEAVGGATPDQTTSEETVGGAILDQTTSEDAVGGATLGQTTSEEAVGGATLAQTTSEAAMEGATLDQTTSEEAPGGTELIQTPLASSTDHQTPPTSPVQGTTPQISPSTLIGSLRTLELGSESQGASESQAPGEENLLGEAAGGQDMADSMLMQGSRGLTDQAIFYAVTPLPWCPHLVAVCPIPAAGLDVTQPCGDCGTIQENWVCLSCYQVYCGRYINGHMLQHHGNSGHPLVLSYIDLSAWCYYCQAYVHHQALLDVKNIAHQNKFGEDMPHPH
Briefly: HDAC6 enzyme activity inhibition assay (in vitro, fluorimetric). Type of assay: biochemical. The settings on record: for HDAC6 selectivity (fold): HDAC6 selectivity over HDAC1; for IC50: human recombinant HDAC6, fluorimetric kit, same protocol as HDAC1. In outline: as §1

T1 sequence (Q13547 whole entry): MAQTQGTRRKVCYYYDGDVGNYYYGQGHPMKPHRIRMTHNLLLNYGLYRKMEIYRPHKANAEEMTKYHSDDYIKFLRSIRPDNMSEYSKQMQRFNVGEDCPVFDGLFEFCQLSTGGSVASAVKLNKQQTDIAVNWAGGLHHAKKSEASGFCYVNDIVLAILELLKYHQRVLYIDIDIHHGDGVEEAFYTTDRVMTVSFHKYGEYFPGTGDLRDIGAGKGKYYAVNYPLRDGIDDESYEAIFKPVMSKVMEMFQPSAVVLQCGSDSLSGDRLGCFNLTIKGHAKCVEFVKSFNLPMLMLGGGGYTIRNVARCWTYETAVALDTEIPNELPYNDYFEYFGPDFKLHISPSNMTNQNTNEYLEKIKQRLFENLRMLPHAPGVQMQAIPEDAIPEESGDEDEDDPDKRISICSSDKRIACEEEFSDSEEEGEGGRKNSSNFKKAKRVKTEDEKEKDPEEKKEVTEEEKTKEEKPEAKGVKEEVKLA

With `C[C@@H]1CN(Cc2ccc(C(=O)NO)cc2)C[C@H](C)N1Cc1ccc(-c2ccoc2)cc1` [Compound 309, 4-(((3R,5S)-4-(4-(furan-3-yl)benzyl)-3,5-dimethylpiperazin-1-yl)methyl)-N-hydroxybenzamide], the IC50 in assay [1] turned out to be 1600 nM. Also, in assay [2], the “HDAC6 selectivity (fold)” value is recorded as 21 fold and the half-maximal inhibitory concentration (IC50) amounted to 73 nM.
Turning to `C[C@@H]1CN(Cc2ccc(C(=O)NO)cc2)C[C@H](C)N1Cc1cccc(C2=CCC(C)(C)CC2)c1` [Compound 347, 4-(((3R,5S)-4-((4′,4′-dimethyl-2′,3′,4′,5′-tetrahydro-[1,1′-biphenyl]-3-yl)methyl)-3,5-dimethylpiperazin-1-yl)methyl)-N-hydroxybenzamide], the IC50 in assay [1] was > 10000 nM; in assay [2] it was 408 nM. Further, the “HDAC6 selectivity (fold)” value in assay [2] is >25 fold.
For `C[C@@H]1CN(Cc2ccc(C(=O)NO)cc2)C[C@H](C)N1C(=O)c1cccc(-c2ccco2)c1` [Compound 242, 4-(((3R,5S)-4-(3-(furan-2-yl)benzoyl)-3,5-dimethylpiperazin-1-yl)methyl)-N-hydroxybenzamide], in that order: 2400 nM, 98 nM and 24 fold.
Regarding `CCC(=O)N1[C@H](C)CN(Cc2ccc(C(=O)NO)cc2)C[C@@H]1C` [Compound 293, 4-(((3R,5S)-3,5-dimethyl-4-propionylpiperazin-1-yl)methyl)-N-hydroxybenzamide], in assay [1], the IC50 turned out to be 5800 nM. Further, in assay [2], the “HDAC6 selectivity (fold)” value is reported as 44 fold and the half-maximal inhibitory concentration (IC50) worked out at 131 nM.
`CCCN1[C@H](C)CN(Cc2ccc(C(=O)NO)cc2)C[C@@H]1C` [Compound 148, 4-(((3R,5S)-3,5-dimethyl-4-propylpiperazin-1-yl)methyl)-N-hydroxybenzamide]: the 50% inhibitory concentration (IC50) in assay [1] was 15400 nM. In addition, in assay [2], the “HDAC6 selectivity (fold)” value is 132 fold and the IC50 was 117 nM.
`C[C@@H]1CN(C(=O)c2cccc(-c3ccncc3)c2)C[C@H](C)N1Cc1ccc(C(=O)NO)cc1` [Compound 260, 4-(((2S,6R)-2,6-dimethyl-4-(3-(pyridin-4-yl)benzoyl)piperazin-1-yl)methyl)-N-hydroxybenzamide]: the concentration for half-maximal inhibition (IC50) in assay [1] came out at 1700 nM; in assay [2] it was 529 nM. Further, the “HDAC6 selectivity (fold)” value in assay [2] is recorded as 3 fold.
Take `C[C@@H]1CN(Cc2ccc(N(C)C)cc2)C[C@H](C)N1Cc1ccc(C(=O)NO)cc1` [Compound 299, 4-(((2S,6R)-4-(4-(dimethylamino)benzyl)-2,6-dimethylpiperazin-1-yl)methyl)-N-hydroxybenzamide]: the IC50 in assay [1] is 1200 nM. Also, in assay [2], the “HDAC6 selectivity (fold)” value is 5 fold and the half-maximal inhibitory concentration (IC50) is 243 nM.
Regarding `C[C@@H]1CN(C(=O)c2cccnc2)C[C@H](C)N1Cc1ccc(C(=O)NO)cc1` [Compound 112, 4-(((2S,6R)-2,6-dimethyl-4-nicotinoylpiperazin-1-yl)methyl)-N-hydroxybenzamide], the IC50 in assay [1] was > 10000 nM; in assay [2], 154 nM. Also, in assay [2], the “HDAC6 selectivity (fold)” value is on record as >65 fold.
`COc1cccc(CNC(=O)N2C[C@@H](C)N(Cc3ccc(C(=O)NO)cc3)[C@@H](C)C2)c1` [Compound 230, (3R,5S)-4-(4-(hydroxycarbamoyl)benzyl)-N-(3-methoxybenzyl)-3,5-dimethylpiperazine-1-carboxamide]: the 50% inhibitory concentration (IC50) in assay [1] is 2400 nM; in assay [2], 687 nM. Also, the “HDAC6 selectivity (fold)” value in assay [2] stood at 3 fold.
Turning to `C[C@@H]1CN(Cc2cc3cc(C(=O)NO)ccc3o2)C[C@H](C)N1Cc1ccccc1` [Compound 574, 2-(((3R,5S)-4-benzyl-3,5-dimethylpiperazin-1-yl)methyl)-N-hydroxybenzofuran-5-carboxamide], the IC50 in assay [1] is 3900 nM. In assay [2], the “HDAC6 selectivity (fold)” value was determined as 4 fold and the IC50 came out at 810 nM.
On to `CC(=O)N1CCN(Cc2ccc(CN3[C@H](C)CN(Cc4ccc(C(=O)NO)cc4)C[C@@H]3C)cc2)CC1` [Compound 486, 4-(((3R,5S)-4-(4-((4-acetylpiperazin-1-yl)methyl)benzyl)-3,5-dimethylpiperazin-1-yl)methyl)-N-hydroxybenzamide], for which the results for the half-maximal inhibitory concentration (IC50) in assay [1] and in assay [2] were > 10000 nM and 126 nM, respectively. Also, the “HDAC6 selectivity (fold)” value in assay [2] is listed as >79 fold.
`C[C@@H]1CN(Cc2ccc(C(=O)NO)cc2)C[C@H](C)N1C(=O)c1ccc(CN2CCCC2)cc1` [Compound 461, 4-(((3R,5S)-3,5-dimethyl-4-(4-(pyrrolidin-1-ylmethyl)benzoyl)piperazin-1-yl)methyl)-N-hydroxybenzamide]: the figures for the concentration for half-maximal inhibition (IC50) in assay [1] and in assay [2] were 4200 nM and 238 nM, respectively. In addition, the “HDAC6 selectivity (fold)” value in assay [2] is 18 fold.
On to `C[C@@H]1CN(C(=O)c2ccccc2)C[C@H](C)N1Cc1ccc(C(=O)NO)cc1` [Compound 080, 4-(((2S,6R)-4-benzoyl-2,6-dimethylpiperazin-1-yl)methyl)-N-hydroxybenzamide], for which the IC50 in assay [1] turned out to be 6600 nM; in assay [2] it was 179 nM. The “HDAC6 selectivity (fold)” value in assay [2] came out at 37 fold.
For `C[C@@H]1CN(Cc2ccc(C(=O)NO)cc2)C[C@H](C)N1CC(F)(F)F` [Compound 149, 4-(((3R,5S)-3,5-dimethyl-4-(2,2,2-trifluoroethyl)piperazin-1-yl)methyl)-N-hydroxybenzamide], in that order: > 10000 nM, 80 nM and >125 fold.
For `C[C@@H]1CN(C(=O)N(C)c2ccccc2)C[C@H](C)N1Cc1ccc(C(=O)NO)cc1` [Compound 196, (3R,5S)-4-(4-(hydroxycarbamoyl)benzyl)-N,3,5-trimethyl-N-phenylpiperazine-1-carboxamide], in that order: 14400 nM, 148 nM and 97 fold.
As for `C[C@@H]1CN(Cc2ccc(C(=O)NO)cc2)C[C@H](C)N1Cc1ccc(CN2CC(F)(F)C2)cc1` [Compound 412, 4-(((3R,5S)-4-(4-((3,3-difluoroazetidin-1-yl)methyl)benzyl)-3,5-dimethylpiperazin-1-yl)methyl)-N-hydroxybenzamide], the IC50 in assay [1] was 1100 nM. In assay [2], the “HDAC6 selectivity (fold)” value was found to be 36 fold and the half-inhibitory concentration (IC50) was found to be 32 nM.
On to `C[C@@H]1CN(C(=O)Cc2cccc(-c3ccccc3)c2)C[C@H](C)N1Cc1ccc(C(=O)NO)cc1` [Compound 250, 4-(((2S,6R)-4-(2-([1,1′-biphenyl]-3-yl)acetyl)-2,6-dimethylpiperazin-1-yl)methyl)-N-hydroxybenzamide], for which the IC50 in assay [1] turned out to be 9500 nM. In addition, in assay [2], the “HDAC6 selectivity (fold)” value was 57 fold and the IC50 amounted to 168 nM.
Regarding `C[C@@H]1CN(Cc2ccc(C(=O)NO)cc2)C[C@H](C)N1Cc1ccc(CN2CCN(C)CC2)cc1` [Compound 468, 4-(((3R,5S)-3,5-dimethyl-4-(4-((4-methylpiperazin-1-yl)methyl)benzyl)piperazin-1-yl)methyl)-N-hydroxybenzamide], in assay [1], the IC50 was found to be 20000 nM. In assay [2], the “HDAC6 selectivity (fold)” value is on record as 690 fold and the 50% inhibitory concentration (IC50) was 29 nM.
Regarding `C[C@@H]1CN(Cc2ccc(C(=O)NO)cc2)C[C@H](C)N1C(=O)Nc1cccc(Cl)c1` [Compound 099, (2S,6R)-N-(3-chlorophenyl)-4-(4-(hydroxycarbamoyl)benzyl)-2,6-dimethylpiperazine-1-carboxamide], the figures for the IC50 in assay [1] and in assay [2] were 12400 nM and 242 nM, respectively. Moreover, the “HDAC6 selectivity (fold)” value in assay [2] is reported as 51 fold.
Take `CCN1CCN(Cc2cccc(CN3[C@H](C)CN(Cc4ccc(C(=O)NO)cc4)C[C@@H]3C)c2)CC1` [Compound 429, 4-(((3R,5S)-4-(3-((4-ethylpiperazin-1-yl)methyl)benzyl)-3,5-dimethylpiperazin-1-yl)methyl)-N-hydroxybenzamide]: in assay [1], the IC50 came out at 4400 nM. For the same molecule, in assay [2], the “HDAC6 selectivity (fold)” value is recorded as 44 fold and the half-maximal inhibitory concentration (IC50) came to 100 nM.

In general, IC50 refers to the midpoint of a concentration-inhibition curve.
